The record followed here is ChEMBL document CHEMBL4311997, “Discovery of a potent histone deacetylase (HDAC) 3/6 selective dual inhibitor” (Eur J Med Chem, 2019).

Assay [1] is filed under the species Homo sapiens. The experiment in a line: Selectivity ratio of IC50 for human HDAC9 to IC50 for human HDAC6.
Assay [2] deals with DNA (cytosine-5)-methyltransferase 1 (Homo sapiens, UniProt P26358). The experiment in a line: Inhibition of human DNMT1 using Poly(dI-dC) as substrate incubated for 1 hr in presence of [3H]-SAM by filter binding method.
Chain of DNA (cytosine-5)-methyltransferase 1 (P26358 whole entry): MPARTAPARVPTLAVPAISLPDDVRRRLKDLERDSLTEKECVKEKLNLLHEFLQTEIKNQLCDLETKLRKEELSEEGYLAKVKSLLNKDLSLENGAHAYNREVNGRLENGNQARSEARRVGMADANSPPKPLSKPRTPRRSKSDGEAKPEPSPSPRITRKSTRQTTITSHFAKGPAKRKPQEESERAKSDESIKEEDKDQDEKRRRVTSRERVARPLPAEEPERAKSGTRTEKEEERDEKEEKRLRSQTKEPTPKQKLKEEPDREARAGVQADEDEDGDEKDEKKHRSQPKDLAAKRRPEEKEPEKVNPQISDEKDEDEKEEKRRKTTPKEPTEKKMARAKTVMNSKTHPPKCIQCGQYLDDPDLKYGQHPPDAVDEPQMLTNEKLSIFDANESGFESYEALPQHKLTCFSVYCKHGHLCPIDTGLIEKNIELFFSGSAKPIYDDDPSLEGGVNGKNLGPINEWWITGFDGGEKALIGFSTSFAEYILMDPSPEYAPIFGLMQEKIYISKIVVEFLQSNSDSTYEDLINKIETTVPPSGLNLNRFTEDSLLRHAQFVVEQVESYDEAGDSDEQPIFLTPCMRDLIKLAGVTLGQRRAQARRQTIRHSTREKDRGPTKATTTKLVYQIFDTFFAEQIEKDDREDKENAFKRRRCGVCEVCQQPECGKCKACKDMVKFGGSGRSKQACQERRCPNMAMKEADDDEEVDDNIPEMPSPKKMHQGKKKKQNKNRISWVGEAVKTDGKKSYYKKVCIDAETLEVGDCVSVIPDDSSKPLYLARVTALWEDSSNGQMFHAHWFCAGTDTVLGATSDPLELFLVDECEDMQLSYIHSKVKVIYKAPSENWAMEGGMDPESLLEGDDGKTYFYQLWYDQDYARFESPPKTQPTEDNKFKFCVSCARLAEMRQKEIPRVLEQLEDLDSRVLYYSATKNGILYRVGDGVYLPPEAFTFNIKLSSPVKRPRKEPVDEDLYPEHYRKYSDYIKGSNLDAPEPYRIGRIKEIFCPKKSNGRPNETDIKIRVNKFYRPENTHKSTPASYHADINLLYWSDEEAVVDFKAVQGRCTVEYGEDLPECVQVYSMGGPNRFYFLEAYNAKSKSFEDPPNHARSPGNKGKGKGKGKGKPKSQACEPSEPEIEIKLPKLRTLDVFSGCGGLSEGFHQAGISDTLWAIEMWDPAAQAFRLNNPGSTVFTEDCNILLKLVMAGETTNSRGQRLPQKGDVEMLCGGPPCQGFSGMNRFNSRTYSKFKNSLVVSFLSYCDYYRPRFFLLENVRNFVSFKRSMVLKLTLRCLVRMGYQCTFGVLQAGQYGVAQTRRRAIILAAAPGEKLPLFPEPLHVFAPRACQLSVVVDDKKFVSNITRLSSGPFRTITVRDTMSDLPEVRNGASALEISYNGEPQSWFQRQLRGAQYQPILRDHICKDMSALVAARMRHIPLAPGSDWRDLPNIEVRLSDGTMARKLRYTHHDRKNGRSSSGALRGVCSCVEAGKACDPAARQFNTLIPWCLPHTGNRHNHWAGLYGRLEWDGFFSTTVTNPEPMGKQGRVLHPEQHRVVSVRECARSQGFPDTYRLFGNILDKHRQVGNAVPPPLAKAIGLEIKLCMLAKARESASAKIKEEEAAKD
Assay [3] has as its system MDA-MB-231. Description: Induction of apoptosis in human MDA-MB-231 cells assessed as viable cells at 6 uM incubated for 48 hrs by Annexin V-FITC/PI staining by flow cytometric analysis (reference value: 77%). As to conditions: MDA-MB-231, 48 h, read-out: Activity. Type of assay: functional.
For assay [4], the target named is Histone-lysine N-methyltransferase EHMT2 (Homo sapiens, UniProt Q96KQ7). The experiment in a line: Inhibition of human G9a using core histone H3 (1 to 21 residues) as substrate incubated for 1 hr in presence of [3H]-SAM by filter binding method.
Chain of Histone-lysine N-methyltransferase EHMT2 (Q96KQ7 whole entry, the tested form may be a part): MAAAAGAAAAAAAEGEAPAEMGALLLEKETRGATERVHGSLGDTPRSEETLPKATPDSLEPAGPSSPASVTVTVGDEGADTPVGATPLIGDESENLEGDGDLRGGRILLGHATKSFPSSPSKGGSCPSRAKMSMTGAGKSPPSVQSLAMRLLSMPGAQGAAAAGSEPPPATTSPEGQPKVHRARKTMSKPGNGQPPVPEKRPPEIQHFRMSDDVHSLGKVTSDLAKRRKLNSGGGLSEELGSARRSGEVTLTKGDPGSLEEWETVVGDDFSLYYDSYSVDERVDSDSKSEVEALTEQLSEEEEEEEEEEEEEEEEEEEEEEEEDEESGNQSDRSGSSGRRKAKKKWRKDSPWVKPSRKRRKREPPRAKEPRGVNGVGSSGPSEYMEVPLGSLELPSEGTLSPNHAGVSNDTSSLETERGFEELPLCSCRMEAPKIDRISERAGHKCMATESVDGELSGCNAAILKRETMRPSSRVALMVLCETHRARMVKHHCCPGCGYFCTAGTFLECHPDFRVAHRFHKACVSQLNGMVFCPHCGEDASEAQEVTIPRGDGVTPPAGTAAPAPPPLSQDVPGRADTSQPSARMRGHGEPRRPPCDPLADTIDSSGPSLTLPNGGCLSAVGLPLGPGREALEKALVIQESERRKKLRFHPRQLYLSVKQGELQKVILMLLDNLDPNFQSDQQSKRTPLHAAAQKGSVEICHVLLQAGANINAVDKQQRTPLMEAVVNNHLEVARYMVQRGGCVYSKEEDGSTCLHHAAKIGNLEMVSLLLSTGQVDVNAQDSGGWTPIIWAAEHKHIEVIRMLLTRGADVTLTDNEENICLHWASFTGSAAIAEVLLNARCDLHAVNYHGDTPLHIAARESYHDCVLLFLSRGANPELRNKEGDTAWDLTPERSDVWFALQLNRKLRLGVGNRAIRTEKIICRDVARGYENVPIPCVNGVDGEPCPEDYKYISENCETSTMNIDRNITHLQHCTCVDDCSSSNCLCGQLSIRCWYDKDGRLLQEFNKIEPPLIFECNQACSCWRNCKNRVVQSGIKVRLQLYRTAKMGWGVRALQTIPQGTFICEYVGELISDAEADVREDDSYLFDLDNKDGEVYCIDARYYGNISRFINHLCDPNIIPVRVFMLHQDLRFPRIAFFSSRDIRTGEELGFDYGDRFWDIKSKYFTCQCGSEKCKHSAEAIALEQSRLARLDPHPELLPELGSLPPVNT
Assay [5] concerns MDA-MB-231. The experiment in a line: Induction of apoptosis in human MDA-MB-231 cells assessed as early apoptotic cells at 6 uM incubated for 48 hrs by Annexin V-FITC/PI staining by flow cytometric analysis (reference value: 5%). Type of assay: functional.
Assay [6] can be described thus: Selectivity index, ratio of EC50 for human MDA-MB-231 cells to IC50 for ring stage Plasmodium falciparum K1. Format: functional. On the set-up: reference not given here.
In assay [7] the target is T1, Protein deacetylase HDAC6 (Homo sapiens, UniProt Q9UBN7).
T1 sequence (Q9UBN7 whole entry): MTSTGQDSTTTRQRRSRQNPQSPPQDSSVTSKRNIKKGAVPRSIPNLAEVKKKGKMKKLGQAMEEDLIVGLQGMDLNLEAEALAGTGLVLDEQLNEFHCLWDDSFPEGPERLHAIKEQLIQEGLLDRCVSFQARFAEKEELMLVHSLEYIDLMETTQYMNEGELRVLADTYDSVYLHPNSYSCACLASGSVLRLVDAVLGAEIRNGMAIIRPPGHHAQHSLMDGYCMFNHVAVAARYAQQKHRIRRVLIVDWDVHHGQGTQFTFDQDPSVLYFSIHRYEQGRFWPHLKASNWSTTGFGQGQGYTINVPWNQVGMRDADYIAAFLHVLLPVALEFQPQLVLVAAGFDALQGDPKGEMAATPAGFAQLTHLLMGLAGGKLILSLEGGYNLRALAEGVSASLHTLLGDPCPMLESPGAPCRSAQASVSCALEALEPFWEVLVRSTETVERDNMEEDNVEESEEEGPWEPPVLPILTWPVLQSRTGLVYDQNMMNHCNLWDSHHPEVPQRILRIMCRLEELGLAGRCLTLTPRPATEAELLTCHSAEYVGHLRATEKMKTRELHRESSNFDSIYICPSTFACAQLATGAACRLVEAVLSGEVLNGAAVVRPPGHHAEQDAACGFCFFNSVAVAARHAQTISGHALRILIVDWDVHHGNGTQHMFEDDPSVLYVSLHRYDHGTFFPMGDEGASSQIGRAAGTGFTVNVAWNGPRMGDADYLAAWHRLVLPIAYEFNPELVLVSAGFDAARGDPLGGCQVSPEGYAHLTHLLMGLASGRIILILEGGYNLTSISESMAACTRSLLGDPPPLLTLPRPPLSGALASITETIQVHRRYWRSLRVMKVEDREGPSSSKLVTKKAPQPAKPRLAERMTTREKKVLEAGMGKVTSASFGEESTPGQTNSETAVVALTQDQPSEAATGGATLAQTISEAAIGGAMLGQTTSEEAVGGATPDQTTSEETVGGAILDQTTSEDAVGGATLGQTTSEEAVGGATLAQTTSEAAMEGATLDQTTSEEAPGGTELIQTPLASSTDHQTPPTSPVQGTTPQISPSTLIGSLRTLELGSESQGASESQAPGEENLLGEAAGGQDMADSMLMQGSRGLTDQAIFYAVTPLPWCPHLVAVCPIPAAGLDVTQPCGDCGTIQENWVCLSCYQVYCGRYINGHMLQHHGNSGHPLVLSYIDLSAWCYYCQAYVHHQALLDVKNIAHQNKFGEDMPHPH
Description: Inhibition of human HDAC6 using Arg-His-Lys-Lys (Ac) as substrate incubated for 2 hrs by fluorescence assay.

Assay [8] concerns MDA-MB-231. The experiment in a line: Induction of apoptosis in human MDA-MB-231 cells assessed as viable cells at 3 uM incubated for 48 hrs by Annexin V-FITC/PI staining by flow cytometric analysis (reference value: 77%). The following applies: MDA-MB-231, 48 h, read-out: Activity. Type of assay: functional.
Assay [9] is filed under the species Homo sapiens. Description: Inhibition of human EZH2 complex at 100 uM using core histone as substrate incubated for 1 hr in presence of [3H]-SAM by filter binding method relative to control.

pEC50, pIC50: −log10 of the molar value. Some results are limits rather than exact numbers.

For orientation: pIC50 means −log10 of the IC50, conventionally taken in molar units. Broadly, the pEC50 is the EC50 on a negative log10 scale, so that one unit is a factor of ten. A word on the inhibition: it is the change of the read-out against control, counted positive when it falls. In the case of `COc1ccc(CN2CCC(Nc3nc(Nc4ccc(NC(=O)CCCCCCC(=O)NO)cc4)nc4cc(OC)c(OC)cc34)CC2)cc1`, the Ratio IC50 in assay [1] was greater than 3000. The pIC50 in assay [2] was 4.85; in assay [7], 8.59. Also, the viability at 6 µM in [3] stood at 52%. The pEC50 in [4] is 3.85. For the same compound, in [5], the Activity is reported as 18%. Also, in assay [6], the “Selectivity Index” value is reported as 12. Besides, the viability at 3 µM in assay [8] is 48%. For the same compound, in [9], the inhibition was determined as 27%.
